Reference: publication PMC5640650, “NatD promotes lung cancer progression by preventing histone H4 serine phosphorylation to activate Slug expression” (Nature Communications, 2017)

Columns and labels:
Assay type in all cases: cell-based, human
[1] = tested on: NatD; test: Quantitative real-time PCR / western blot of NatD knockdown; conditions: H1299 cells; for NatD mRNA, remaining relative to scrambled control: stable lentiviral shRNA, qPCR normalized to GAPDH, three independent experiments; for NatD protein level: western blot, vs Scr
Text: Fig. 2 NatD is required for lung cancer cell migration and invasion in vitro. a Quantitative real-time PCR analysis of NatD mRNA levels normalized to GAPDH in scrambled control cells (Scr) and NatD-KD1 and NatD-KD2 cells. Results are shown as mean ± s.d. from three independent experiments. Two-tailed Student’s t-test was used. **P < 0.01 compared to Scr control. b Western blot analysis of NatD and Nt-ac-H4 protein levels in scrambled, NatD-KD1, and NatD-KD2 cells. GAPDH and histone H4 served as loading controls. Blots are representative of three independent experiments. c Representative images from wound healing assay of scrambled, NatD-KD1, and NatD-KD2 cells from three independent experiments (left panels). Wound healing assay results are quantified in the histogram (right panel). Results are shown as mean ± s.d. from three independent experiments. Two-tailed Student’s t-test was used. **P < 0.01 compared to Scr control. d Representative images of the migration of scrambled, NatD-KD1, and NatD-KD2 cells in a time-lapse cell tracker migration assay from three independent experiments. Representative images of the migration (e) and invasion (f) of scramble, NatD-KD1, and NatD-KD2 cells with transwell assay from three independent experiments (top panel). Cell counts for the corresponding assays of at least four random microscope fields (×100 magnification). Cell migration and invasion are expressed as a percentage of control (bottom panel). Results are shown as mean ± s.d. from three independent experiments. Two-tailed Student’s t-test was used. **P < 0.01 compared to Scr control
The small interfering RNA (siRNA) target sequences for RNA interference of NatD were inserted into the XhoI/HpaI sites in the pLL3.7 lentiviral vector according to the manufacturer’s recommendations (American Type Culture Collection, USA). The oligonucleotides were:
Total RNA from tissue samples and cultured cells was extracted using TRIzol reagent (Invitrogen). cDNAs were synthesized with a HiScript 1st Strand cDNA Synthesis Kit (Vazyme Biotech, China). Quantitative RT-PCR was performed using a FastStart Universal SYBR Green Master (Roche) according to the manufacturer’s instructions in a Rotor-Gene 6000 (Corbett Research) in a final volume of 20 μl. Cycling conditions were 94 °C for 15 s, 60 °C for 30 s, and 72 °C for 30 s. Each reaction was performed in triplicate. The primer sequences for RT-PCR are listed in Supplementary Table 2 and Table 3.

[2] = tested on: H1299 cells; test: Cell growth (CCK-8), H1299 cells; conditions: vs Scr
Procedure: (§1) The in vitro viability of H1299 cells was assessed using the Cell Counting Kit-8 (CCK-8, Dojindo, Japan) according to the manufacturer’s protocol. Flow cytometric analysis of apoptosis was assessed by Annexin V and PI staining using the Annexin V-APC Apoptosis Detection Kit (KeyGEN BioTECH, China) according to the manufacturer’s guide. For cell cycle analysis, cells were harvested and fixed at 4 °C overnight with 70% ethanol. Cells were washed twice with PBS, and their DNA was stained using a Cell Cycle Detection Kit (KeyGEN BioTECH, China). The samples were analyzed by flow cytometry (Becton Dickinson, NJ, USA), and results were analyzed with FlowJo software according to the manufacturer’s instructions. For the wound healing assay, cells were plated to confluence in a 6-well plate, and the cell monolayer was scratched using a pipette tip. Representative photos were taken using a digital camera mounted on an inverted microscope (Olympus) at indicated times. Live cell imaging was performed using the HoloMonitor M4 time-lapse cytometer (Phase Holographic Imaging, Sweden). […]
Supplementary Figure 1. […] (b and c) Representative images from three independent experiments of apoptosis (b) and cell cycle analysis (c) of Scr and NatD-KD H1299 cells analyzed by flow cytometry. […]

[3] = tested on: A549 cells; test: Transwell migration and invasion assay, A549 cells; conditions: vs Scr
Procedure: as §1
of A549 cells. […] (bottom) Quantification of cell migration and invasion expressed as a percentage of Scr control; mean ± s.d. from three independent experiments; two-tailed Student’s t-test, **P<0.01 compared to Scr control. […]

Row | Substance | NatD mRNA, remaining relative to scrambled control [1] | NatD protein level [1] | cell growth rate [2] | cell migration and invasion (transwell) [3] | NatD knockdown quality ([1]; KD2 vs KD1)
1 | NatD-KD1: Human NatD shRNA KD1: 5′-GATGAAGAAGGTTATGTTA-3′, lentiviral (shRNA, lentiviral) | 30% | decreased | grew at a similar rate | inhibits cell migration and invasion | –
2 | NatD-KD2: Human NatD shRNA KD2: 5′-GGTTGAATGTCTCCATTGA-3′, lentiviral (shRNA lentiviral) | 30% | decreased | grew at a similar rate | inhibits cell migration and invasion | somewhat better knockdown
